{"source": "patent US20070232590A1", "about": "“3-Cylcoalkylbenzazepines as Histamine H3 Antagonists” (GLAXO GROUP LIMITED, priority 2004, published 2007)", "key": {"histamine H3 receptor [1]": {"target": "T1, histamine H3 receptor (Homo sapiens, UniProt Q9Y5N1)", "T1 construct": "expressed in transfected cells; host or cells: CHO K1 cells carrying pSwitch, transfected with pGeneH3 and induced with mifepristone; clone 3H3; membrane preparation", "T1 sequence (Q9Y5N1 whole entry)": "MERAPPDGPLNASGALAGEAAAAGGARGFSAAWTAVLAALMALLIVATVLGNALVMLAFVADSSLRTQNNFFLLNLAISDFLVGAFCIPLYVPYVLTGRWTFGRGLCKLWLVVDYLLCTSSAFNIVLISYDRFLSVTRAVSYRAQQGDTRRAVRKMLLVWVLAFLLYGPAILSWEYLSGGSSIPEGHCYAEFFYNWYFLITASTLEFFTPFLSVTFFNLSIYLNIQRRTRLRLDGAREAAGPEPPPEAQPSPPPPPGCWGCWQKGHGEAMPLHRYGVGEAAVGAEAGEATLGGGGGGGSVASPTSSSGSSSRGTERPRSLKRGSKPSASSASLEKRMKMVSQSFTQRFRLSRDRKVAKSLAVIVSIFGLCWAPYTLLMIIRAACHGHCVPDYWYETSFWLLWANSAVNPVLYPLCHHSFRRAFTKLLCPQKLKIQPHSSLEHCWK", "assay": "Histamine H3 functional antagonist assay (method A), [35S]-GTPγS SPA on membranes", "type": "biochemical", "conditions": "functional pKi, membrane from cultured H3 cells (CHO K1), histamine at EC80, averages of a number of experiments, read-out: Antagonism (fpKi) (converted)", "text": "(§1) A membrane preparation containing histamine H3 receptors may be prepared in accordance with the following procedures:\n(§2) (i) Generation of Histamine H3 Cell Line\n(§3) DNA encoding the human histamine H3 gene (Huvar, A. et al. (1999) Mol. Pharmacol. 55(6), 1101-1107) was cloned into a holding vector, pCDNA3.1 TOPO (InVitrogen) and its cDNA was isolated from this vector by restriction digestion of plasmid DNA with the enzymes BamH1 and Not-1 and ligated into the inducible expression vector pGene (InVitrogen) digested with the same enzymes. The GeneSwitch™ system (a system where in transgene expression is switched off in the absence of an inducer and switched on in the presence of an inducer) was performed as described in U.S. Pat. Nos. 5,364,791; 5,874,534; and 5,935,934. Ligated DNA was transformed into competent DH5α E. coli host bacterial cells and plated onto Luria Broth (LB) agar containing Zeocin™ (an antibiotic which allows the selection of cells expressing the sh ble gene which is present on pGene and pSwitch) at 50 μg ml^−1. Colonies containing the re-ligated plasmid were identified by restriction analysis. DNA for transfection into mammalian cells was prepared from 250 ml cultures of the host bacterium containing the pGeneH3 plasmid and isolated using a DNA preparation kit (Qiagen Midi-Prep) as per manufacturers guidelines (Qiagen).\nCHO K1 cells previously transfected with the pSwitch regulatory plasmid (InVitrogen) were seeded at 2×10e6 cells per T75 flask in Complete Medium, containing Hams F12 (GIBCOBRL, Life Technologies) medium supplemented with 10% v/v dialysed foetal bovine serum, L-glutamine, and hygromycin (100 μg ml^−1), 24 hours prior to use. Plasmid DNA was transfected into the cells using Lipofectamine plus according to the manufacturers guidelines (InVitrogen). 48 hours post transfection cells were placed into complete medium supplemented with 500 μg ml^−1 Zeocin™.\n10-14 days post selection 10 nM Mifepristone (InVitrogen), was added to the culture medium to induce the expression of the receptor. 18 hours post induction cells were detached from the flask using ethylenediamine tetra-acetic acid (EDTA; 1:5000; InVitrogen), following several washes with phosphate buffered saline pH 7.4 and resuspended in Sorting Medium containing Minimum Essential Medium (MEM), without phenol red, and supplemented with Earles salts and 3% Foetal Clone II (Hyclone). Approximately 1×10e7 cells were examined for receptor expression by staining with a rabbit polyclonal antibody, 4a, raised against the N-terminal domain of the histamine H3 receptor, incubated on ice for 60 minutes, followed by two washes in sorting medium. Receptor bound antibody was detected by incubation of the cells for 60 minutes on ice with a goat anti rabbit antibody, conjugated with Alexa 488 fluorescence marker (Molecular Probes). Following two further washes with Sorting Medium, cells were filtered through a 50 μm Filcon™ (BD Biosciences) and then analysed on a FACS Vantage SE Flow Cytometer fitted with an Automatic Cell Deposition Unit. Control cells were non-induced cells treated in a similar manner. Positively stained cells were sorted as single cells into 96-well plates, containing Complete Medium containing 500 μg ml^−1 Zeocin™ and allowed to expand before reanalysis for receptor expression via antibody and ligand binding studies. One clone, 3H3, was selected for membrane preparation.\n(ii) Membrane Preparation from Cultured Cells\nAll steps of the protocol are carried out at 4° C. and with pre-cooled reagents. The cell pellet is resuspended in 10 volumes of homogenisation buffer (50 mM N-2-hydroxyethylpiperazine-N′-2-ethanesulfonic acid (HEPES), 1 mM ethylenediamine tetra-acetic acid (EDTA), pH 7.4 with KOH, supplemented with 10e-6M leupeptin (acetyl-leucyl-leucyl-arginal; Sigma L2884), 25 μg/ml bacitracin (Sigma B0125), 1 mM phenylmethylsulfonyl fluoride (PMSF) and 2×10 e-6M pepstain A (Sigma)). […]"}, "histamine H3 receptor [2]": {"target": "T1, histamine H3 receptor", "assay": "Histamine H3 functional antagonist assay (method B), [35S]-GTPγS SPA on membranes", "type": "biochemical", "conditions": "functional pKi, membrane from cultured H3 cells (CHO K1), histamine at EC80, averages of a number of experiments, read-out: Antagonism (fpKi) (converted)", "text": "as §1, §2\nas §3, with “(Qiagen). […]” for “(Qiagen).”\n10-14 days post selection 10 nM Mifepristone (InVitrogen), was added to the culture medium to induce the expression of the receptor. […] Receptor bound antibody was detected by incubation of the cells for 60 minutes on ice with a goat anti rabbit antibody, conjugated with Alexa 488 fluorescence marker (Molecular Probes). Following two further washes with Sorting Medium, cells were filtered through a 50 μm Filcon™ (BD Biosciences) and then analysed on a FACS Vantage SE Flow Cytometer fitted with an Automatic Cell Deposition Unit. […]"}}, "data": [{"smiles": "O=C1CCCN1c1ccc(Oc2ccc3c(c2)CCN(C2CCCC2)CC3)nc1", "note": "[Compound 1, 1-{6-[(3-Cyclopentyl-2,3,4,5-tetrahydro-1H-3-benzazepin-7-yl)oxy]-3-pyridinyl}-2-pyrrolidinone]", "values": [{"measurement": "Ki", "setting": "histamine H3 receptor [1]", "result": 0.0794, "unit": "nM"}, {"measurement": "Ki", "setting": "histamine H3 receptor [2]", "result": 0.158, "unit": "nM"}]}, {"smiles": "O=C1CCCN1c1cnc(Oc2ccc3c(c2)CCN(C2CCCC2)CC3)cn1", "note": "[Compound 2, 1-{5-[(3-Cyclopentyl-2,3,4,5-tetrahydro-1H-3-benzazepin-7-yl)oxy]-2-pyrazinyl}-2-pyrrolidinone]", "values": [{"measurement": "Ki", "setting": "histamine H3 receptor [1]", "result": 0.0794, "unit": "nM"}, {"measurement": "Ki", "setting": "histamine H3 receptor [2]", "result": 0.158, "unit": "nM"}]}, {"smiles": "CN1CCN(c2ccc(Oc3ccc4c(c3)CCN(C3CCC3)CC4)c(F)c2)C1=O", "note": "[Compound 3, 1-{4-[(3-Cyclobutyl-2,3,4,5-tetrahydro-1H-3-benzazepin-7-yl)oxy]-3-fluorophenyl}-3-methyl-2-imidazolidinone]", "values": [{"measurement": "Ki", "setting": "histamine H3 receptor [1]", "result": 0.0501, "unit": "nM"}, {"measurement": "Ki", "setting": "histamine H3 receptor [2]", "result": 0.158, "unit": "nM"}]}, {"smiles": "O=C1CCCN1c1ccc(Oc2ccc3c(c2)CCN(C2CCC2)CC3)cc1", "note": "[Compound 4, 1-{4-[(3-Cyclobutyl-2,3,4,5-tetrahydro-1H-3-benzazepin-7-yl)oxy]phenyl}-2-pyrrolidinone]", "values": [{"measurement": "Ki", "setting": "histamine H3 receptor [1]", "result": 0.158, "unit": "nM"}]}, {"smiles": "O=C1OCCN1c1ccc(Oc2ccc3c(c2)CCN(C2CCCC2)CC3)nn1", "note": "[Compound 5, 3-{6-[(3-Cyclopentyl-2,3,4,5-tetrahydro-1H-3-benzazepin-7-yl)oxy]-3-pyridazinyl}-1,3-oxazolidin-2-one]", "values": [{"measurement": "Ki", "setting": "histamine H3 receptor [1]", "result": 0.0501, "unit": "nM"}]}, {"smiles": "O=C1CCCN1c1ccc(Oc2ccc3c(c2)CCN(C2CCCC2)CC3)nn1", "note": "[Compound 6, 1-{6-[(3-Cyclopentyl-2,3,4,5-tetrahydro-1H-3-benzazepin-7-yl)oxy]-3-pyridazinyl}-2-pyrrolidinone]", "values": [{"measurement": "Ki", "setting": "histamine H3 receptor [1]", "result": 0.126, "unit": "nM"}]}, {"smiles": "Cc1noc(-c2cnc(Oc3ccc4c(c3)CCN(C3CCCC3)CC4)cn2)n1", "note": "[Compound 7, 3-Cyclopentyl-7-{[5-(3-methyl-1,2,4-oxadiazol-5-yl)-2-pyrazinyl]oxy}-2,3,4,5-tetrahydro-1H-3-benzazepine]", "values": [{"measurement": "Ki", "setting": "histamine H3 receptor [1]", "result": 0.126, "unit": "nM"}]}, {"smiles": "Cc1noc(-c2ccc(Oc3ccc4c(c3)CCN(C3CCC3)CC4)nc2)n1", "note": "[Compound 8, 3-Cyclobutyl-7-{[5-(3-methyl-1,2,4-oxadiazol-5-yl)-2-pyridinyl]oxy}-2,3,4,5-tetrahydro-1H-3-benzazepine]", "values": [{"measurement": "Ki", "setting": "histamine H3 receptor [1]", "result": 0.1, "unit": "nM"}]}, {"smiles": "Cc1noc(-c2ccc(Oc3ccc4c(c3)CCN(C3CCCC3)CC4)nc2)n1", "note": "[Compound 9, 3-Cyclopentyl-7-{[5-(3-methyl-1,2,4-oxadiazol-5-yl)-2-pyridinyl]oxy}-2,3,4,5-tetrahydro-1H-3-benzazepine]", "values": [{"measurement": "Ki", "setting": "histamine H3 receptor [1]", "result": 0.251, "unit": "nM"}]}]}
